In article PMC3634901 (Bioorganic & medicinal chemistry letters, 2013):
Entries after “also recorded” stand apart in the source; their conditions may differ.

Legend:
Erk activation = conditions: endothelial cells; cited from earlier work
AGC kinases = conditions: panel of 20 AGC kinases; cited from earlier work
[1] = tested on: retinal endothelial cells; experiment: VEGF/TNF-induced retinal endothelial permeability assay; assay type: cell-based; conditions: dose response; in words
Akt activation = conditions: endothelial cells; cited from earlier work
[2] = tested on: aPKC isoforms (PKCζ, PKCι); experiment: kinase potency against aPKC isoforms; conditions: without discrimination for PKCζ or PKCι; in words
[3] = tested on: TNF-induced NFκB activation; assay type: cell-based; conditions: single dose of 0.1 μM; in words

Compound | block of VEGF-induced Erk activation (Erk activation) | specificity towards aPKC isoforms versus AGC family members (AGC kinases) | efficacy in preventing TNF/VEGF-induced endothelial permeability [1] | block of VEGF-induced Akt activation (Akt activation) | potency against aPKC isoforms [2] | inhibition of TNF-induced NFκB activity [3]
COc1ccc(-c2csc(N)c2C(=O)OC(C)C)cc1OC [compound 6] | does not block | high degree of specificity; also recorded: excellent selectivity | good efficacy | does not block | low micromolar to high nanomolar potency | –
COc1ccc(-c2csc(N)c2C(=O)OCc2ccccc2)cc1OC [compound 10] | – | – | – | – | – | significant inhibition
COc1cccc(COC(=O)c2c(-c3ccc(OC)c(OC)c3)csc2N)c1 [compound 14] | – | – | – | – | low micromolar to high nanomolar potency | significant inhibition
CCOC(=O)c1c(-c2ccc(N)cc2)csc1N [compound 29] | – | – | good efficacy | – | – | significant inhibition
CCOC(=O)c1c(-c2ccc(N(C)C)cc2)csc1N [compound 30] | – | – | good efficacy | – | low micromolar to high nanomolar potency | –
CCOC(=O)c1c(-c2ccc3c(c2)OCO3)csc1N [compound 32] | – | – | good efficacy | – | low micromolar to high nanomolar potency | significant inhibition
